We go through two compounds from patent US20260232640A1, “COMPOSITIONS AND METHODS FOR TREATING SPINAL MUSCULAR ATROPHY” (NMD Pharma A/S, priority 2023, published 2026).

Data set [1] has as its system SMA (delta-7 mouse) animals. Briefly: Tolerability after intraperitoneal injection in SMA model. Type of data set: in vivo. The settings on record: 20 mg/kg intraperitoneally, five animals. The protocol: (§1) The employed model of SMA is a genetic knock-in model of severe SMA (“delta-7 mouse”). This model was developed in The Ohio State University laboratories (Foust et al, 2010). In this study the mice were administered at post-natal day 2 via intracerebroventricular injection 40 μg of morpholino ASOs directed against ISS-N1 to increase full-length SMN protein production from SMN2 to allow the animal to live to about 90 days. Five animals aged 67 days were investigated in a study where 20 mg/kg CIC-1 inhibitor ((S)-2-(4-bromo-2-ethynylphenoxy)propionic acid) in phosphate buffered saline was administered intraperitoneally and subjected to a rotarod test battery 90 minutes after injection (single intervention) and CMAP recording 120 min after injection.

The subject of data set [2] is SMA (delta-7 mouse) animals. The experiment in a line: RotaRod test (latency to fall) in SMA model. The format is in vivo. The settings on record: 20 mg/kg IP; for latency to fall / running test, result in words: before vs 90 min after dosing. The protocol:
as §1
RotaRod (Harward apparatus, MA, USA) were used to explore the physical capabilities of the SMA mouse model in vivo and examined coordination ability of legs and endurance on a horizontal accelerating, rotating rod. The RotaRod test was designed to start at a low revolution rate of 5 rpm of the horizontal roll and accelerate gradually to 45 rpm over 300 seconds (maximal test time). Animals were acclimatized and trained for several weeks prior to intervention, to avoid training bias. […] This was performed prior to dosing, and then 90 min after IP dosing of 20 mg/kg of the CIC-1inhibitor.
In general terms: Falling from the rotarod earlier than controls is read as motor impairment.

For data set [3], the system named is SMA (delta-7 mouse) animals. The experiment in a line: Compound Muscle Action Potentials (CMAP) decrement, repeated sciatic nerve stimulation (EMG). Conditions: for CMAP decrement, result in words: 10 to 50 Hz, before vs after treatment, significant from 20 to 50 Hz only; for CMAP Decrement % (10th/1st Stimulation): 20 mg/kg IP, 120 min after dosing. Type of data set: in vivo. The protocol:
as §1
Compound Muscle Action Potentials (CMAP) measurements were performed as previously described (Arnold et al, 2015). Briefly, the right sciatic nerve was stimulated with a pair of insulated 28-gauge monopolar needles (Teca, Oxford Instruments Medical, NY) placed in proximity to the sciatic nerve in the proximal hind limb. Recording electrodes consisted of a pair of fine ring wire electrodes (Alpine Biomed, Skovlunde, Denmark). The active recording electrode was placed distal to the knee joint over the proximal portion of the triceps surae muscle and the reference electrode over the metatarsal region of the foot. A disposable strip electrode (Carefusion, Middleton, WI) was placed on the contralateral hind limb to serve as the ground electrode. Data collection and analysis was performed using Cadwell Sierra Summit EMG unit (Cadwell laboratories, Kennewick, Washington, USA). Animals were stimulated in trains of 10 pulses of 50 μs at supramaximal voltage at 10, 20, 30, 40 and 50 Hz, with 10 seconds between stimulation trains.
This was performed prior to dosing, and then 120 min after IP dosing of 20 mg/kg of the CIC-1inhibitor. The relative amplitude from the 10th to the 1st stimulation is denoted as decrement, and a larger negative number designates a larger deficit/decrement, indicating a larger transmission failure from nerve to muscle.

The nature of data set [4]: Phase I clinical trial Part A, single dose pharmacokinetics in plasma. The format is in vivo, human. The protocol:
• Collect blood (3 mL recommended) onto wet ice (K2EDTA tubes) • Immediately cool blood on crushed wet ice for maximum of 30 minutes • Harvest plasma as quickly as possible using refrigerated centrifuge by centrifuging at 2000 g for 10 minutes at 4° C. • Keep plasma on wet ice and immediately stabilise with 1:1 (v/v) addition of Water: Orthophosphoric Acid (100:2 v/v) prepared using ≥85% orthophosphoric acid and deionised water (e.g. 750 μL plasma+750 μL stabiliser). • Mix sample thoroughly. • Keep the stabilised plasma on wet ice during subsequent steps. • Divide the stabilised plasma into 5×250 μL aliquots in plastic cryotubes. • Store aliquots at nominal −70° C./−80° C. promptly.
• 1. Thaw frozen calibration standards, QC samples, blank matrix and study samples on wet ice. • 2. Vortex-mix all samples thoroughly. • 3. On wet ice aliquot 150 μL of calibration standards, QC samples, study samples, and blanks into a 2 mL 96-well plate. For the reagent blank add the same volume of Water. • 4. On wet ice add 25 μL of Methanol:Water (50:50) to wells containing blanks and the same volume of ISTD intermediate solution to all other wells. • 5. On wet ice add 125 μL of Water to each well. […] Condition SPE plate with 250 μL of Water. • 9. Load 250 μL of the sample onto the SPE plate (aspirate from the rim of the cone to avoid any debris collected at the bottom of the well). […]

The nature of data set [5]: Tablet dissolution (USP2 paddles, HPLC). Type of data set: physicochemical. The settings on record: immediate release tablets; USP2 paddles 75 RPM, 900 ml dissolution media pH 6.8, 37° C.; after a maximum of 60 minutes.
Protocol: Tablet dissolution was determined as follows.
Dissolution Media pH 6.8 was prepared by dissolving 27.3 g Na2HPO4·2H2O and 4.9 g Citric Acid in 1 L Milli-Q water. The pH was measured and adjusted if necessary to pH 6.8.
900 mL of dissolution media pH 6.8 was accurately transferred into each dissolution vessel. The apparatus was assembled, and the dissolution media was heated to 37° C.±0.5° C. The T=0 point was extracted from each vessel prior to dropping the tablets into the dissolution vessels. One tablet was gently dropped into each dissolution vessel, and rotation of the paddle was immediately started. Samples were taken that the sample extraction timepoints and analysed using the HPLC method.
A further data set relates to healthy volunteers. The experiment in a line: Phase I clinical trial Part A, tolerability/safety (adverse events). Type of data set: in vivo, human.

The structures appear in SMILES notation. Entries after “also recorded” stand apart in the source; their conditions may differ.

For `C#Cc1cc(Br)ccc1O[C@@H](C)C(=O)O` [CIC-1 inhibitor, (S)-2-(4-bromo-2-ethynylphenoxy)propionic acid], the “adverse reactions to the compound injection” value in data set [1] is given as “did not exhibit any adverse reactions to the compound injection, nor any signs of muscle stiffness”. The “Time for remaining on rotor rod” value in data set [2] (90 min after dosing, delta-7 mice aged 67 days, pre-treatment 62.2 ± 40.2) was 81 ± 63.2 s. In addition, the “latency to fall / running test, result in words” value in data set [2] is recorded as “All animals were able to stay on the rotating rod longer after treatment; also recorded: performed better in the running test”; in data set [2] (listed as CIC-1inhibitor) it was “All animals were able to stay on the rotating rod longer after treatment”. For the same compound, the “CMAP decrement, result in words” value is listed as “only minimal decrement visible; also recorded: less pronounced in all animals at all frequencies; also recorded: reduced decrement in EMG (RNS) at all tested frequencies” in data set [3] and “less pronounced in all animals at all frequencies” in data set [3] (listed as CIC-1inhibitor). Further, the improvement in decrement in data set [3] (at 50 Hz, mouse model of SMA) amounted to 75%. Besides, the “CMAP Decrement % (10th/1st Stimulation)” value in data set [3] (stimulation frequency 10 Hz) was −7.0 ± 5.4%; in data set [3] (stimulation frequency 20 Hz) it was −8.1 ± 5.1%; in data set [3] (stimulation frequency 30 Hz), −8.4 ± 6.0%; in data set [3] (stimulation frequency 40 Hz) it was −8.9 ± 4.9%; in data set [3] (stimulation frequency 50 Hz), −7.7 ± 6.5%.

Turning to `C[C@H](Oc1ccc(Br)cc1-c1ccon1)C(=O)O` [NMD670, (2S)-2-[4-bromo-2-(1,2-oxazol-3-yl)phenoxy]propanoic acid], the half-life in data set [4] (plasma, oral, human, stated in rationale for washout period) was about 240 min. For the same compound, the “T1/2 (mean ± SD, hr)” value in data set [4] (single oral dose 100 mg, healthy male subjects) worked out at 5.07 ± 0.63 h. Moreover, in data set [5], the “NMD670 released from the tablets” value is given as “Not less than 80%”. Also, the “adverse event that stopped dose escalation” value with healthy volunteers (1600 mg, dose level 7, spontaneously and fully resolved within hours) was “myotonia of moderate intensity observed in one subject”. Further, in the data set on healthy volunteers (Part A), the subject discontinuations entry is given as “no subject discontinuations”. For the same compound, the “total number of AEs reported” value in the data set on healthy volunteers (Part A, 35 healthy subjects, single doses) is 70. In addition, in the data set on healthy volunteers (except one AE of myotonia (1600 mg) and tooth extraction (unrelated, 50 mg), moderate), the “intensity of AEs” value is given as “Most AEs were mild”. The “dose-related AE” value in the data set on healthy volunteers (highest dose levels tested (1200 mg and 1600 mg), single dose) was “transient myotonia”. In the data set with healthy volunteers (of 70 AEs, Part A), the “number of AEs at least possibly drug related” value was found to be 47 and the “share of AEs at least possibly drug related” value was 67%. The “serious or severe adverse effects” value with healthy volunteers (single doses 50 to 1600 mg, 35 healthy subjects) is “No serious or severe adverse effects were reported”.

As usually defined, the half-life is the time needed for the level to fall by half in the phase considered.
